# Assay results published in patent publication US9242981B2, “Fused pyrazole derivatives as novel ERK inhibitors” (Merck Sharp & Dohme Corp., priority 2010, dated 2016).
# Molecular target: Mouse ERK2 protein (Mus musculus (Mouse), UniProt P63085)
# Assay: Coupled MEK1/ERK2 IMAP assay or Active ERK2 IMAP assay
# Assay type: biochemical
# Conditions: Table 1, class symbols, 30 μM ATP
# Sequence of Mouse ERK2 protein (P63085 whole entry): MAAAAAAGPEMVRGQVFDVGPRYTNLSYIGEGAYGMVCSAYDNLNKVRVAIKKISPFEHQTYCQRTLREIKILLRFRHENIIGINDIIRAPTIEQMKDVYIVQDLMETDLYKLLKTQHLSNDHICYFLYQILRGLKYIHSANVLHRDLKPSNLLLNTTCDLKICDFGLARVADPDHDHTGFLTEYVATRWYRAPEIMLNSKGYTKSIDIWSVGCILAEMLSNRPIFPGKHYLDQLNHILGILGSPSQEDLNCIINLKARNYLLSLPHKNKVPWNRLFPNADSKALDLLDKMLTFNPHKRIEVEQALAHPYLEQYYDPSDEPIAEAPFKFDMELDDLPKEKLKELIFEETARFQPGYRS
row,IC50,Structure (SMILES)
1,21 to 100 nM,"COc1ccc(CN2CCC[C@@H](NC(=O)N3CCc4[nH]nc(-c5ccnc(C)c5)c4C3)C2)c2ccccc12 [Compound 99, 1,4,6,7-tetrahydro-N-[1-[(4-Methoxy-1-naphthalenyl)-methyl]-3(R)-piperidinyl]-3-(2-methyl-4-pyridinyl)-5H-pyrazolo[4,3-c]pyridine-5-carboxamide]"
2,21 to 100 nM,"Cc1cc(-c2n[nH]c3c2CN(C(=O)NC2CC(C)CN(Cc4csc5ccccc45)C2)CC3)ccn1 (stereo not shown) [Compound 101, N-[1-(benzo[b]thien-3-ylmethyl)-5-methyl-3-piperidinyl]-1,4,6,7-tetrahydro-3-(2-methyl-4-pyridinyl)-5H-pyrazolo[4,3-c]pyridine-5-carboxamide]"
3,21 to 100 nM,"Cc1cc(-c2n[nH]c3c2CN(C(=O)NC2CC(C)CN(Cc4cc5ccccc5n4C)C2)CC3)ccn1 (stereo not shown) [Compound 102, 1,4,6,7-tetrahydro-N-[5-methyl-1-[(1-methyl-1H-indol-2-yl)methyl]-3-piperidinyl]-3-(2-methyl-4-pyridinyl)-5H-pyrazolo[4,3-c]pyridine-5-carboxamide]"
4,21 to 100 nM,"Cc1cc(-c2n[nH]c3c2CN(C(=O)NC2CC(C)CN(Cc4ccccc4Cl)C2)CC3)ccn1 (stereo not shown) [Compound 103, N-[1-[(2-chlorophenyl)methyl]-5-methyl-3-piperidinyl]-1,4,6,7-tetrahydro-3-(2-methyl-4-pyridinyl)-5H-pyrazolo[4,3-c]pyridine-5-carboxamide]"
5,21 to 100 nM,"Cc1cc(-c2n[nH]c3c2CN(C(=O)NC2CC(C)CN(Cc4ccc5ccccc5n4)C2)CC3)ccn1 (stereo not drawn) [Compound 104, 1,4,6,7-tetrahydro-3-(2-methyl-4-pyridinyl)-N-[5-methyl-l-(2-quinolinylmethyl)-3-piperidinyl]-5H-pyrazolo[4,3-c]pyridine-5-carboxamide]"
6,101 to 1000 nM,"Cc1cc(-c2n[nH]c3c2CN(C(=O)NC2CCC(c4ccccc4)NC2)CC3)ccn1 (stereo not shown) [Compound 105, 1,4,6,7-tetrahydro-3-(2-methyl-4-pyridinyl)-N-(6-phenyl-3-piperidinyl)-5H-pyrazolo[4,3-c]pyridine-5-carboxamide]"
7,101 to 1000 nM,"Cc1cc(-c2n[nH]c3c2CN(C(=O)NC2CCC(c4ccccc4)N(Cc4c(F)cccc4F)C2)CC3)ccn1 (stereo not shown) [Compound 106, N-[1-[(2,6-difluorophenyl)-methyl]-6-phenyl-3-piperidinyl]-1,4,6,7-tetrahydro-3-(2-methyl-4-pyridinyl)-5H-pyrazolo[4,3-c]pyridine-5-carboxamide]"
8,< 20 nM,"O=C(NC1CC(O)CN(Cc2ccccc2Cl)C1)N1CCc2[nH]nc(-c3ccncc3)c2C1 (stereo not shown) [Compound 114, N-[1-[(2-chlorophenyl)-methyl]-5-hydroxy-3-piperidinyl]-1,4,6,7-tetrahydro-3-(4-pyridinyl)-5H-pyrazolo[4,3-c]pyridine-5-carboxamide]"
9,101 to 1000 nM,"Cc1cc(-c2n[nH]c3c2CN(C(=O)N[C@@H]2CCN(Cc4c(F)cccc4F)C2)CC3)ccn1 [Compound 115, N-[1-[(2,6-difluorophenyl)-methyl]-3(R)-pyrrolidinyl]-1,4,6,7-tetrahydro-3-(2-methyl-4-pyridinyl)-5H-pyrazolo[4,3-c]pyridine-5-carboxamide]"
10,21 to 100 nM,"COc1cccc(F)c1CN1CC[C@@H](NC(=O)N2CCc3[nH]nc(-c4ccnc(C)c4)c3C2)C1 [Compound 116, N-[1-[(2-fluoro-6-methoxyphenyl)methyl]-3(R)-pyrrolidinyl]-1,4,6,7-tetrahydro-3-(2-methyl-4-pyridinyl)-5H-pyrazolo[4,3-c]pyridine-5-carboxamide]"
11,21 to 100 nM,"Cc1cc(-c2n[nH]c3c2CN(C(=O)N[C@@H]2CCN(Cc4c(F)cccc4Cl)C2)CC3)ccn1 [Compound 117, N-[1-[(2-chloro-6-fluorophenyl)methyl]-3(R)-pyrrolidinyl]-1,4,6,7-tetrahydro-3-(2-methyl-4-pyridinyl)-5H-pyrazolo[4,3-c]pyridine-5-carboxamide]"
12,21 to 100 nM,"Cc1cc(-c2n[nH]c3c2CN(C(=O)N[C@@H]2CCN(Cc4ccccc4Cl)C2)CC3)ccn1 [Compound 118, N-[1-[(2-chlorophenyl)-methyl]-3(R)-pyrrolidinyl]-1,4,6,7-tetrahydro-3-(2-methyl-4-pyridinyl)-5H-pyrazolo[4,3-c]pyridine-5-carboxamide]"
13,21 to 100 nM,"Cc1cc(-c2n[nH]c3c2CN(C(=O)N[C@@H]2CCN(Cc4c(C)cccc4C)C2)CC3)ccn1 [Compound 119, N-[1-[(2,6-dimethylphenyl)-methyl]-3(R)-pyrrolidinyl]-1,4,6,7-tetrahydro-3-(2-methyl-4-pyridinyl)-5H-pyrazolo[4,3-c]pyridine-5-carboxamide]"
14,< 20 nM,"Cc1cc(-c2n[nH]c3c2CN(C(=O)N[C@@H]2CCN(Cc4csc5ccccc45)C2)CC3)ccn1 [Compound 120, N-[1-(benzo[b]thien-3-ylmethyl)-3(R)-pyrrolidinyl]-1,4,6,7-tetrahydro-3-(2-methyl-4-pyridinyl)-5H-pyrazolo[4,3-c]pyridine-5-carboxamide]"
15,21 to 100 nM,"COc1cccc(F)c1CN1CC(NC(=O)N2CCc3[nH]nc(-c4ccnc(C)c4)c3C2)CCC1C (stereo not shown) [Compound 121, N-[1-[(2-fluoro-6-methoxyphenyl)methyl]-6-methyl-3-piperidinyl]-1,4,6,7-tetrahydro-3-(2-methyl-4-pyridinyl)-5H-pyrazolo[4,3-c]pyridine-5-carboxamide]"

# Further lines, the compound ahead of its results:
row,Structure (SMILES),IC50
1,"O=C(NC1CC2CC1N(Cc1c(F)cccc1F)C2)N1CCc2[nH]nc(-c3ccncc3)c2C1 (stereo not shown) [Compound 107, N-[2-[(2,6-difluorophenyl)-methyl]-2-azabicyclo[2.2.1]-hept-6-yl]-1,4,6,7-tetrahydro-3-(4-pyridinyl)-5H-pyrazolo[4,3-c]pyridine-5-carboxamide]",101 to 1000 nM
2,"COc1cccc(F)c1CN1CC2CC(NC(=O)N3CCc4[nH]nc(-c5ccncc5)c4C3)C1C2 (stereo not shown) [Compound 108, N-[2-[(2-fluoro-6-methoxyphenyl)methyl]-2-azabicyclo[2.2.1]hept-6-yl]-1,4,6,7-tetrahydro-3-(4-pyridinyl)-5H-pyrazolo[4,3-c]pyridine-5-carboxamide]",101 to 1000 nM
3,"O=C(N[C@@H]1CCCN(Cc2c(F)cccc2F)C1)N1CCc2[nH]nc(-c3ccc4nccn4c3)c2C1 [Compound 111, N-[1-[(2,6-difluorophenyl)-methyl]-3(R)-piperidinyl]-1,4,6,7-tetrahydro-3-(imidazo[1,2-a]pyridin-6-yl)-5H-pyrazolo[4,3-c]pyridine-5-carboxamide]",< 20 nM
4,"COc1cccc(F)c1CN1CCCC(NC(=O)N2CCc3[nH]nc(-c4ccnc(C)c4)c3C2)C1C (stereo not shown) [Compound 122, N-[1-[(2-fluoro-6-methoxyphenyl)methyl]-2-methyl-3-piperidinyl]-1,4,6,7-tetrahydro-3-(2-methyl-4-pyridinyl)-5H-pyrazolo[4,3-c]pyridine-5-carboxamide]",101 to 1000 nM
5,"COc1ccc(-c2n[nH]c3c2CN(C(=O)N[C@@H]2CCCN(Cc4c(C)cccc4C)C2)CC3)cc1F [Compound 124, N-[1-[(2,6-dimethylphenyl)-methyl]-3(R)-piperidinyl]-3-(3-fluoro-4-methoxyphenyl)-1,4,6,7-tetrahydro-5H-pyrazolo[4,3-c]pyridine-5-carboxamide]",21 to 100 nM
6,"COc1ccc(-c2n[nH]c3c2CN(C(=O)N[C@@H]2CCCN(Cc4c(C)cccc4C)C2)CC3)cn1 [Compound 125, N-[1-[(2,6-dimethylphenyl)-methyl]-3(R)-piperidinyl]-1,4,6,7-tetrahydro-3-(6-Methoxy-3-pyridinyl)-5H-pyrazolo[4,3-c]pyridine-5-carboxamide]",21 to 100 nM
7,"Cc1cccc(C)c1CN1CCC[C@@H](NC(=O)N2CCc3[nH]nc(-c4ccc5nn(C)cc5c4)c3C2)C1 [Compound 126, N-[1-[(2,6-dimethylphenyl)-methyl]-3(R)-piperidinyl]-1,4,6,7-tetrahydro-3-(2-methyl-2H-indazol-5-yl)-5H-pyrazolo[4,3-c]pyridine-5-carboxamide]",< 20 nM
8,"Cc1cccc(C)c1CN1CCC[C@@H](NC(=O)N2CCc3[nH]nc(-c4ccc5c(cnn5C)c4)c3C2)C1 [Compound 127, N-[1-[(2,6-dimethylphenyl)-methyl]-3(R)-piperidinyl]-1,4,6,7-tetrahydro-3-(1-methyl-1H-inclazol-5-yl)-5H-pyrazolo[4,3-c]pyridine-5-carboxamide]",< 20 nM
9,"O=C(N[C@@H]1CCN(Cc2csc3ccccc23)C1)N1CCc2[nH]nc(-c3ccc(-c4ccccc4)nc3)c2C1 [Compound 129, N-[1-(benzo[b]thien-3-ylmethyl)-3(R)-pyrrolidinyl]-1,4,6,7-tetrahydro-3-(6-phenyl-3-pyridinyl)-5H-pyrazolo[4,3-c]pyridine-5-carboxamide]",101 to 1000 nM
10,"O=C(N[C@@H]1CCCN(Cc2c(F)cccc2F)C1)N1CCc2[nH]nc(-c3ccc4ncccc4c3)c2C1 [Compound 130, N-[1-[(2,6-difluorophenyl)-methyl]-3(R)-piperidinyl]-1,4,6,7-tetrahydro-3-(6-quinolinyl)-5H-pyrazolo[4,3-c]pyridine-5-carboxamide]",21 to 100 nM
11,"COc1ccc(-c2n[nH]c3c2CN(C(=O)N[C@@H]2CCCN(Cc4c(F)cccc4F)C2)CC3)cc1F [Compound 131, N-[1-[(2,6-difluorophenyl)-methyl]-3(R)-piperidinyl]-3-(3-fluoro-4-methoxyphenyl)-1,4,6,7-tetrahydro-5H-pyrazolo[4,3-c]pyridine-5-carboxamide]",21 to 100 nM
12,"COc1ccc(-c2n[nH]c3c2CN(C(=O)N[C@@H]2CCCN(Cc4c(F)cccc4F)C2)CC3)cn1 [Compound 132, N-[1-[(2,6-difluorophenyl)-methyl]-3(R)-piperidinyl]-1,4,6,7-tetrahydro-3-(6-Methoxy-3-pyridinyl)-5H-pyrazolo[4,3-c]pyridine-5-carboxamide]",21 to 100 nM
13,"Cn1cc2cc(-c3n[nH]c4c3CN(C(=O)N[C@@H]3CCCN(Cc5c(F)cccc5F)C3)CC4)ccc2n1 [Compound 133, N[1-[(2,6-difluorophenyl)-methyl]-3(R)-piperidinyl]-1,4,6,7-tetrahydro-3-(2-methyl-2H-indazol-5-yl)-5H-pyrazolo[4,3-c]pyridine-5-carboxamide]",21 to 100 nM
